Assay results as given in patent US6737383B1, “Herbicidal oxadiazolidines” (priority 1999, dated 2004).

Columns and labels:
[1] = system: blackgrass; assay: Test B pre/postemergence blackgrass; assay type: in vivo, Alopecurus myosuroides
Outline: (§1)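 Test chemicals in a non-phytotoxic solvent mixture with surfactant were sprayed preemergence onto planted seeds and postemergence onto plants 2 to 18 cm tall (1- to 4-leaf stage). After twelve to sixteen days in a greenhouse, injury was visually rated against untreated controls from 0 (no effect) to 10 (complete control).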

[2] = system: crabgrass; assay: Test B pre/postemergence crabgrass; assay type: in vivo, Digitaria sanguinalis
Outline: as §1

[3] = system: wheat; assay: Test B pre/postemergence wheat; assay type: in vivo, Triticum aestivum
Outline: as §1

[4] = system: surinam grass; assay: Test B pre/postemergence surinam grass; assay type: in vivo, Brachiaria decumbens
Outline: as §1

[5] = system: rape; assay: Test B pre/postemergence rape; assay type: in vivo, Brassica napus
Outline: as §1

[6] = system: wild oat; assay: Test B pre/postemergence wild oat; assay type: in vivo, Avena fatua
Outline: as §1

[7] = system: velvetleaf; assay: Test B pre/postemergence velvetleaf; assay type: in vivo, Abutilon theophrasti
Outline: as §1

[8] = system: soybean; assay: Test B pre/postemergence soybean; assay type: in vivo, Glycine max
Outline: as §1

[9] = system: smallflower flatsedge; assay: Test B flood test smallflower flatsedge; assay type: in vivo, Cyperus difformis
Outline: (§2)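 Read-out is a visual response score from 0 (no effect) to 10 (complete control), assigned by comparison with untreated controls. Treatment was applied at the 2-leaf stage, and plants stayed in the greenhouse for twelve to sixteen days before scoring.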

[10] = system: corn; assay: Test B pre/postemergence corn; assay type: in vivo, Zea mays
Outline: as §1

[11] = system: cocklebur; assay: Test B pre/postemergence cocklebur; assay type: in vivo, Xanthium strumarium
Outline: as §1

[12] = system: giant foxtail; assay: Test B pre/postemergence giant foxtail; assay type: in vivo, Setaria faberii
Outline: as §1

[13] = system: duck salad; assay: Test B flood test duck salad; assay type: in vivo, Heteranthera limosa
Outline: as §2

[14] = system: pigweed; assay: Test B pre/postemergence pigweed; assay type: in vivo, Amaranthus retroflexus
Outline: as §1

[15] = system: rice; assay: Test B flood test rice; assay type: in vivo, Oryza sativa
Outline: as §2

[16] = system: sugar beet; assay: Test B pre/postemergence sugar beet; assay type: in vivo, Beta vulgaris
Outline: as §1

[17] = Postemergence, Rate 250 g/ha, scale 0 to 10
[18] = Postemergence, Rate 500 g/ha, scale of 0 to 10 where 0 is no effect and 10 is complete control
[19] = Preemergence, Rate 62 g/ha, scale 0 to 10 (0 no effect, 10 complete control)
[20] = Preemergence, Rate 125 g/ha, scale of 0 to 10 where 0 is no effect and 10 is complete control
[21] = Preemergence, Rate 250 g/ha, scale 0 to 10, 0 is no effect, 10 is complete control
[22] = Preemergence, Rate 500 g/ha, scale 0 to 10, 0 is no effect, 10 is complete control
[23] = Rate 62 g/ha, Postemergence, scale of 0 to 10 where 0 is no effect and 10 is complete control
[24] = Rate 125 g/ha, Postemergence, scale 0 to 10, 0 is no effect, 10 is complete control
[25] = Postemergence block (flood test species), Rate 250 g/ha, scale 0 to 10
[26] = Postemergence section (flood test species), Rate 500 g/ha, scale of 0 to 10 where 0 is no effect and 10 is complete control
[27] = Rate 125 g/ha, Postemergence section (flood test species), scale 0 to 10, 0 is no effect, 10 is complete control

CC(C)N(C(=O)n1oc(=O)n(CC#N)c1=O)c1ccccc1 [Compound 434]
1: Crabgrass plant response rating [2, 17] | Crabgrass plant response rating [2, 22] | Soybean plant response rating [8, 17] | Soybean plant response rating [8, 18] | Giant foxtail plant response rating [12, 17]
2: Giant foxtail plant response rating [12, 22]
4: Crabgrass plant response rating [2, 18] | Giant foxtail plant response rating [12, 18] | Redroot pigweed plant response rating [14, 22]
0: Blackgrass plant response rating [1, 17] | Blackgrass plant response rating [1, 18] | Plant response rating, Blackgrass [1, 19] | Plant response rating, Blackgrass [1, 20] | Blackgrass plant response rating [1, 21] | Blackgrass plant response rating [1, 22] | Blackgrass plant response rating [1, 23] | Blackgrass plant response rating [1, 24] | Plant response rating, Crabgrass [2, 19] | Plant response rating, Crabgrass [2, 20] | Crabgrass plant response rating [2, 21] | Crabgrass plant response rating [2, 23] | Crabgrass plant response rating [2, 24] | Wheat plant response rating [3, 17] | Wheat plant response rating [3, 18] | Plant response rating, Wheat [3, 19] | Plant response rating, Wheat [3, 20] | Wheat plant response rating [3, 21] | Wheat plant response rating [3, 22] | Wheat plant response rating [3, 24] | B. signalgrass plant response rating ([4]; Postemergence, Rate 250 g/ha, scale 0 to 10, 0 no effect, 10 complete control) | B. signalgrass plant response rating [4, 18] | Plant response rating, B. signalgrass [4, 19] | Plant response rating, B. signalgrass [4, 20] | B. signalgrass plant response rating [4, 21] | B. signalgrass plant response rating [4, 22] | B. signalgrass plant response rating [4, 23] | B. signalgrass plant response rating [4, 24] | Rape plant response rating [5, 17] | Rape plant response rating [5, 18] | Plant response rating, Rape [5, 19] | Plant response rating, Rape [5, 20] | Rape plant response rating [5, 21] | Rape plant response rating [5, 22] | Rape plant response rating [5, 24] | Wild oats plant response rating [6, 17] | Wild oats plant response rating [6, 18] | Plant response rating, Wild oats [6, 19] | Plant response rating, Wild oats [6, 20] | Wild oats plant response rating [6, 21] | Wild oats plant response rating [6, 22] | Wild oats plant response rating [6, 24] | Velvetleaf plant response rating [7, 17] | Velvetleaf plant response rating [7, 18] | Plant response rating, Velvetleaf [7, 19] | Plant response rating, Velvetleaf [7, 20] | Velvetleaf plant response rating [7, 21] | Velvetleaf plant response rating [7, 22] | Velvetleaf plant response rating [7, 24] | Plant response rating, Soybean [8, 19] | Plant response rating, Soybean [8, 20] | Soybean plant response rating [8, 21] | Soybean plant response rating [8, 22] | Soybean plant response rating [8, 24] | S. Flatsedge plant response rating [9, 25] | S. Flatsedge plant response rating [9, 26] | S. Flatsedge plant response rating [9, 27] | Corn plant response rating [10, 17] | Corn plant response rating [10, 18] | Plant response rating, Corn [10, 19] | Plant response rating, Corn [10, 20] | Corn plant response rating [10, 21] | Corn plant response rating [10, 22] | Corn plant response rating [10, 23] | Corn plant response rating [10, 24] | Cocklebur plant response rating [11, 17] | Cocklebur plant response rating [11, 18] | Plant response rating, Cocklebur [11, 19] | Plant response rating, Cocklebur [11, 20] | Cocklebur plant response rating [11, 21] | Cocklebur plant response rating [11, 22] | Cocklebur plant response rating [11, 23] | Cocklebur plant response rating [11, 24] | Plant response rating, Giant foxtail [12, 19] | Plant response rating, Giant foxtail [12, 20] | Giant foxtail plant response rating [12, 21] | Giant foxtail plant response rating [12, 23] | Giant foxtail plant response rating [12, 24] | Ducksalad plant response rating [13, 25] | Ducksalad plant response rating [13, 26] | Ducksalad plant response rating ([13]; Rate 62 g/ha, Postemergence (flood test species), scale of 0 to 10 where 0 is no effect and 10 is complete control) | Ducksalad plant response rating [13, 27] | Redroot pigweed plant response rating [14, 17] | Redroot pigweed plant response rating [14, 18] | Plant response rating, Redroot pigweed [14, 19] | Plant response rating, Redroot pigweed [14, 20] | Redroot pigweed plant response rating [14, 21] | Redroot pigweed plant response rating [14, 24] | Rice plant response rating [15, 25] | Rice plant response rating [15, 26] | Rice plant response rating [15, 27] | Sugarbeets plant response rating [16, 17] | Sugarbeets plant response rating [16, 18] | Plant response rating, Sugarbeets [16, 19] | Plant response rating, Sugarbeets [16, 20] | Sugarbeets plant response rating [16, 21] | Sugarbeets plant response rating [16, 22] | Sugarbeets plant response rating [16, 24]
